Results on three molecules are retold here after patent publication US11040970B2, “VMAT2 inhibitor compounds and compositions thereof” (Neurocrine Biosciences, Inc., priority 2017, dated 2021).

One experiment addresses VMAT2 (Homo sapiens (Human), UniProt Q05940). Description: VMAT2 radioligand binding assay: competition against 3H-dihydrotetrabenezine on human platelet homogenate (modified procedure). The following applies: 10 nM 3H-dihydrotetrabenezine, 25° C., 90 minutes. How it is done:
Examples of techniques for determining the capability of a compound to inhibit VMAT2 are provided below. The procedure is adapted from that described previously (see, e.g., Near, (1986), Mol. Pharmacol. 30: 252-57; Teng, et al., J. Neurochem. 71, 258-65, 1998). Homogenates from human platelets or Sprague-Dawley rat forebrain were prepared by homogenization and then washed by centrifugation as described previously (see, e.g., Hoare et al., (2003) Peptides 24:1881-97). […] Following incubation at 25° C. for two hours, bound radioligand was collected by rapid filtration onto GF/B glass fiber filters using a Unifilter-96 Harvester (PerkinElmer). Filter plates were pre-treated for 10 minutes with 0.1% polyethylenimine, and following harvesting the filter plates were washed with 800 μl VMAT2 binding buffer. Bound radioligand was quantified by scintillation counting using a Topcount NXT (PerkinElmer).
Following incubation at 25° C. for 90 minutes, bound radioligand was collected by rapid filtration onto GF/B glass fiber filters using a Unifilter-96 Harvester (PerkinElmer). Filter plates were pre-treated with 0.1% polyethylenimine and allowed to dry overnight, and following harvesting the filter plates were washed with 800 μl VMAT2 binding buffer. Bound radioligand was quantified by scintillation counting using a Topcount NXT (PerkinElmer).

In experiment [1] the test system is vesicular monoamine transporter-2 (VMAT2). The following applies: read-out: IC50 catecholamine uptake by VMAT2; cited from earlier work.

VMAT2, sequence (Q05940 whole entry): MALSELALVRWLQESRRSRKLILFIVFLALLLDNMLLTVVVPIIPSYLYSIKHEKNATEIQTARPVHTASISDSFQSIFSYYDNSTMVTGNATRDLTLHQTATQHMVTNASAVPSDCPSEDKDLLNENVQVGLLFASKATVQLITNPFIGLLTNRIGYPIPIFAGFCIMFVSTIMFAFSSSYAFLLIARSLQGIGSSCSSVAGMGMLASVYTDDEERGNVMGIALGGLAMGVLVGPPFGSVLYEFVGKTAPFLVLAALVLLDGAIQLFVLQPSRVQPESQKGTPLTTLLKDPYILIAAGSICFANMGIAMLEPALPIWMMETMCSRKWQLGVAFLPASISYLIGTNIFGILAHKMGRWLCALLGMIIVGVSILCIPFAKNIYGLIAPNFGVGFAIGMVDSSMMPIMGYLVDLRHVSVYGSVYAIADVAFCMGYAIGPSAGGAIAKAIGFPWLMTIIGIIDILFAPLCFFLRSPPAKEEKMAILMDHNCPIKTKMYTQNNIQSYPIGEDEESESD

Consider `COc1cc2c(cc1OCCCF)CCN1C[C@@H](CC(C)(C)C)N(C)C[C@@H]21` [Compound 12-1, (3R,11bR)-3-(2,2-dimethylpropyl)-9-(3-fluoropropoxy)-10-methoxy-2-methyl-1H,2H,3H,4H,6H,7H,11bH-piperazino[2,1-a]isoquinoline], for which the Ki (as a rule, the dissociation constant of the complex between target and ligand, obtained from inhibition or displacement) at VMAT2 fell in the range of 10 to 500 nM. The same measure, in the same setting: the figure for `COc1cc2c(cc1OC)[C@@H]1CN(C)[C@H](CC(C)(C)C)CN1CC2` [Compound 12-2, (3R,11bR)-3-(2,2-dimethylpropyl)-9,10-dimethoxy-2-methyl-1H,2H,3H,4H,6H,7H,11bH-piperazino[2,1-a]isoquinoline] is greater than 500 nM. Regarding `COc1cc2c(cc1OC)C1CC(=O)C(CC(C)C)CN1CC2` (stereo not drawn) [Tetrabenazine, 3-Isobutyl-9,10-dimethoxy-1,3,4,6,7,11b-hexahydro-2H-pyrido[2,1-a]-isoquinolin-2-one], in experiment [1], the IC50 – broadly, the point on the concentration scale where inhibition reaches its midpoint – is […].
